Reference: US20260060991A1, “METHODS AND COMPOSITIONS FOR INHIBITING CLONAL HEMATOPOIESIS” (The Jackson Laboratory, priority 2022, published 2026)
“Also recorded” adds a separate entry of the source.

System: WT recipient mice transplanted with Dnmt3a-mutant cells (Dnmt3a;Npm1-mutant)
Assay: Navitoclax treatment of mice transplanted with Dnmt3a-mutant cells, followed by tamoxifen induction of the Npm1 mutation (progression from clonal hematopoiesis to myeloid malignancy)
Format: in vivo, mouse
Description: FIG. 6A-6E: Navitoclax treatment attenuates Dnmt3a-mutant peripheral blood myeloid cell overproduction. (FIG. 6A) Dnmt3a-mutant cells were transplanted into wild type recipient mice, 12 weeks post-transplant Navitoclax or vehicle control was administered, and 2 weeks later the Npm1 mutation was induced in the Dnmt3a-mutant cells. (FIG. 6B) Frequency of donor-derived mature Dnmt3a;Npm1-mutant myeloid cells in peripheral blood of Navitoclax or vehicle control treated transplant mice. (FIG. 6C) Engraftment of donor-derived mature Dnmt3a;Npm1-mutant myeloid cells in BM (FIG. 6D) β-gal expression in BMSCs, and (FIG. 6E) monocyte count in navitoclax versus vehicle treated mice.
Next, the functional importance of BMSC senescence in Dnmt3a-mutant transformation to AML was evaluated. Dnmt3a-mutant cells were transplanted into WT recipient mice, administered the senolytic Navitoclax or vehicle control, and then induced the AML driver mutation Npm1^c in vivo.
Using the senolytic Navitoclax, targeting Bcl-2/Bcl-xL, we evaluated the extent to which removing senescent cells caused by Dnmt3a-mutant haematopoiesis in vivo would delay progression from clonal hematopoiesis to myeloid malignancy. Briefly, Dnmt3a-mutant cells (cells from BM derived from CD45.2^+; Dnmt3a^R787H/+ MxCre; Npm1^frt-cA/+Flpo^ERT mice) were transplanted into recipient mice (CD45.1^+ mice) (FIG. 6A). After 12 weeks (‘Pre-senolytic’), recipient mice were either administered vehicle control or the senolytic agent, navitoclax, by oral gavage to selectively deplete senescent cells. Navitoclax was administered at a dosage of 50 mg/kg/day for 1 week, followed by 2 weeks of no treatment, followed by 1 week of treatment. Blood samples were collected from Pre-senolytic mice before administration of vehicle control or navitoclax. Following navitoclax treatment (‘Post-senolytic’), the AML driver mutation Npm1^cA/+ (‘TAM’) was induced using tamoxifen to initiate progression to myeloid malignancy. Blood samples were collected from Post-senolytic mice and TAM mice. Tamoxifen was administered for a period of 1 week. Blood samples were taken from tamoxifen treated mice (“Post-Npm1”).

navitoclax
frequency of donor (CD45.2+) cells in the BM (5 months after tamoxifen treatment (harvest), relative to vehicle treated controls, FIG. 6C): lower frequency
BMSC senescence (measured by β-gal) (5 months after tamoxifen treatment (harvest), relative to vehicle treated controls, FIG. 6D): maintained lower BMSC senescence
monocyte ("white blood cell" or "WBC") count (5 months after tamoxifen treatment (harvest), relative to vehicle treated controls, FIG. 6E): reduced monocyte
frequency of myeloid cells (CD45.2+) in the peripheral blood (PB) (Post-Npm1 sampling, navitoclax 50 mg/kg/day oral gavage, 1 week on, 2 weeks off, FIG. 6B): reduced frequency
peripheral blood myeloid cell overproduction (concurrent with transformation of Dnmt3a;Npm1-mutant cells, vs vehicle control): reduced; also recorded: attenuates
